Measurements taken from patent US12146004B2, “Polymyxin compounds and uses thereof” (priority 2014, dated 2024).
Values after ≈ are worked out from the molar mass of the structure shown. Bridge positions count the residues as written; N and C are the ends. Square brackets hold non-standard residues; d marks the D form. Peptide text beside a SMILES is read from it. * marks the point of attachment. ξ: configuration not given here. dPhe(4-Br) = N[C@H](Cc1ccc(Br)cc1)C(=O)O; X13 = NCC[C@H](OCc1ccc(Cl)cc1)C(=O)*; Gly(octyl) = CCCCCCCC[C@H](N)C(=O)O; Octanoyl(6-Me) = CCC(C)CCCCC(=O)*; dCha = N[C@H](CC1CCCCC1)C(=O)O; Thr(3ξ) = CC(O)[C@H](N)C(=O)O; X1 = CC(C)CN1CCNC[C@H]1C(=O)*; Octanoyl = CCCCCCCC(=O)*; Dab = NCC[C@H](N)C(=O)O; Dap = NC[C@H](N)C(=O)O; X18 = CCCCC(CCN)C(=O)*

Tests used:
Format in all cases: cell-based
Escherichia coli = tested on: Escherichia coli
Outline: (§1)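 Strain panels of up to nine per species, with resistant and Polymyxin-tolerant strains included, were used for susceptibility testing; read-out was MIC (μg/mL).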

Klebsiella pneumoniae = tested on: Klebsiella pneumoniae
Outline: as §1

Pseudomonas aeruginosa = tested on: Pseudomonas aeruginosa
Outline: as §1

Acinetobacter baumannii = tested on: Acinetobacter baumannii
Outline: as §1

[1] = tested on: Escherichia coli, Pseudomonas aeruginosa, Klebsiella pneumoniae and Acinetobacter baumannii; assay: Susceptibility testing, comparisons in words across the Gram negative pathogens; conditions: for activity against polymyxin resistant strains: versus comparator compound
Description: To evaluate the potency and spectrum of the compounds, susceptibility testing was performed against up to nine strains of each of the Gram negative pathogens, Escherichia coli, Pseudomonas aeruginosa, Klebsiella pneumoniae and Acinetobacter baumannii.

HK-2 cells = tested on: HK-2 cells
Description: Values are reported relative to Polymyxin B.

| SMILES | MIC E. coli 058 (Escherichia coli) [µg/mL] | MIC E. coli 059 (Escherichia coli) [µg/mL] | MIC E. coli 060 (Escherichia coli) [µg/mL] | MIC E. coli 061 (Escherichia coli) [µg/mL] | MIC E. coli ATCC 25922 (Escherichia coli) [µg/mL] | MIC K. pneumoniae 063 (Klebsiella pneumoniae) [µg/mL] | MIC K. pneumoniae 064 (Klebsiella pneumoniae) [µg/mL] | MIC K. pneumoniae 065 (Klebsiella pneumoniae) [µg/mL] | MIC K. pneumoniae 066 (Klebsiella pneumoniae) [µg/mL] | MIC K. pneumoniae 067 (Klebsiella pneumoniae) [µg/mL] | MIC K. pneumoniae ATCC 4352 (Klebsiella pneumoniae) [µg/mL] | MIC P. aeruginosa 068 (Pseudomonas aeruginosa) [µg/mL] | MIC P. aeruginosa 070 (Pseudomonas aeruginosa) [µg/mL] | MIC P. aeruginosa ATCC 27853 (Pseudomonas aeruginosa) [µg/mL] | MIC A. baumanii 053 (Acinetobacter baumannii) [µg/mL] | MIC A. baumanii 056 (Acinetobacter baumannii) [µg/mL] | MIC A. baumanii ATCC BAA-747 (Acinetobacter baumannii) [µg/mL] | HK-2 IC50 (HK-2 cells) [µg/mL] | MIC K. pneumoniae ATCC 13882 (Klebsiella pneumoniae) [µg/mL] | MIC P. aeruginosa CCUG 59347 (Pseudomonas aeruginosa) [µg/mL] | further results |
| --- | --- | --- | --- | --- | --- | --- | --- | --- | --- | --- | --- | --- | --- | --- | --- | --- | --- | --- | --- | --- | --- |
| CC(C)CC1CNCC(C(=O)N[C@H](C(=O)N[C@@H](CN)C(=O)N[C@H]2CCNC(=O)[C@H]([C@@H](C)O)NC(=O)[C@H](CCN)NC(=O)[C@H](CCN)NC(=O)[C@H](CC(C)C)NC(=O)[C@@H](Cc3ccc(-c4ccccc4)cc3)NC(=O)[C@H](CCN)NC2=O)C(C)O)C1 (single isomer, unassigned; isomer 2) [Example 4, (trans-5-(isobutyl-piperidine)-3-carbonyl L-Thr-L-Dap-polymyxin [D-(4-phenyl)Phe]-6]heptapeptide. Isomer 2] | 0.5 (≈ 0.419 µM) | 0.5 (≈ 0.419 µM) | 0.5 (≈ 0.419 µM) | 2 (≈ 1.68 µM) | 0.5 (≈ 0.419 µM) | 4 (≈ 3.35 µM) | 2 (≈ 1.68 µM) | 1 (≈ 0.839 µM) | 1 (≈ 0.839 µM) | 8 (≈ 6.71 µM) | 0.5 (≈ 0.419 µM) | 1 (≈ 0.839 µM) | 2 (≈ 1.68 µM) | 1 (≈ 0.839 µM) | 2 (≈ 1.68 µM) | 0.5 (≈ 0.419 µM) | 0.5 (≈ 0.419 µM) | 32 |  |  | activity against polymyxin resistant strains [1]: significantly improves of activity against resistant strains |
| CCCCCCCC[C@@H]1NC(=O)[C@@H](Cc2ccccc2)NC(=O)[C@H](CCN)NC(=O)[C@@H](NC(=O)[C@H](CCN)NC(=O)[C@@H](NC(=O)[C@H](CCN)NC(=O)CCCCCCC)[C@@H](C)O)CCNC(=O)[C@H]([C@@H](C)O)NC(=O)[C@H](CCN)NC(=O)[C@H](CCN)NC1=O [Example C7, octanoyl-Dab-Thr-Dab-Cy[Dab-Dab-D-Phe-L-OctGly-Dab-Dab-Thr], reference compound] (Octanoyl-[Dab]T[Dab][Dab][Dab][dF][Gly(octyl)][Dab][Dab]T; lactam 4-C) | 2 (≈ 1.61 µM) |  |  |  | 1 (≈ 0.803 µM) |  |  | 2 (≈ 1.61 µM) |  |  |  |  |  | 0.5 (≈ 0.401 µM) |  |  | 1 (≈ 0.803 µM) |  | 1 (≈ 0.803 µM) | 2 (≈ 1.61 µM) | MIC E. coli CA059 (Escherichia coli): 2 µg/mL (≈ 1.61 µM); MIC E. coli CA060 (Escherichia coli): 2 µg/mL (≈ 1.61 µM); MIC E. coli CA061 (Escherichia coli): 4 µg/mL (≈ 3.21 µM); MIC K. pneumoniae CA062 (Klebsiella pneumoniae): 16 µg/mL (≈ 12.8 µM); MIC K. pneumoniae CA063 (Klebsiella pneumoniae): 8 µg/mL (≈ 6.42 µM); MIC K. pneumoniae CA064 (Klebsiella pneumoniae): 4 µg/mL (≈ 3.21 µM); MIC K. pneumoniae CA066 (Klebsiella pneumoniae): 2 µg/mL (≈ 1.61 µM); MIC K. pneumoniae CA067 (Klebsiella pneumoniae): 64 µg/mL (≈ 51.4 µM); MIC K. pneumoniae N655 (Klebsiella pneumoniae): 8 µg/mL (≈ 6.42 µM); MIC P. aeruginosa CA068 (Pseudomonas aeruginosa): 4 µg/mL (≈ 3.21 µM); MIC P. aeruginosa CA070 (Pseudomonas aeruginosa): 2 µg/mL (≈ 1.61 µM); MIC A. baumanii NCTC 13424 (Acinetobacter baumannii): 1 µg/mL (≈ 0.803 µM); MIC A. baumannii CA053 (Acinetobacter baumannii): 4 µg/mL (≈ 3.21 µM); MIC A. baumannii CA056 (Acinetobacter baumannii): 4 µg/mL (≈ 3.21 µM); activity against polymyxin-susceptible strains ([1]; versus compounds in a more negative A Log P range): less active against polymyxin-susceptible strains |
| CCCCC(CCN)C(=O)N[C@H](C(=O)N[C@@H](CCN)C(=O)N[C@H]1CCNC(=O)[C@H]([C@@H](C)O)NC(=O)[C@H](CCN)NC(=O)[C@H](CCN)NC(=O)[C@H](CC(C)C)NC(=O)[C@@H](Cc2ccccc2)NC(=O)[C@H](CCN)NC1=O)C(C)O (some centres unmarked) [Example C4, 2-(2-Aminoethyl) hexanoyl polymyxin B nonapeptide, reference compound] (X18-[Thr(3ξ)][Dab][Dab][Dab][dF]L[Dab][Dab]T; lactam 3-C) | >64 |  |  |  | 1.0 (≈ 0.905 µM) |  |  | >64 |  |  | 0.25 (≈ 0.226 µM) |  |  | 1 (≈ 0.905 µM) |  |  | 1 (≈ 0.905 µM) |  | 1 (≈ 0.905 µM) | 2 (≈ 1.81 µM) | MIC A. baumanii NCTC 13424 (Acinetobacter baumannii): 0.5 µg/mL (≈ 0.453 µM); activity [1]: only moderate activity |
| CCC(C)CCCCC(=O)N[C@@H](CCN)C(=O)N[C@H](C(=O)N[C@@H](CCN)C(=O)N[C@H]1CCNC(=O)[C@H]([C@@H](C)O)NC(=O)[C@H](CCN)NC(=O)[C@H](CCN)NC(=O)[C@H](CC(C)C)NC(=O)[C@@H](Cc2ccc(Br)cc2)NC(=O)[C@H](CCN)NC1=O)C(C)O (stereo partly drawn) [Example 2, Polymyxin B[D-(4-bromoPhe)]-6]] ({Octanoyl(6-Me)}-[Dab][Thr(3ξ)][Dab][Dab][Dab][dPhe(4-Br)]L[Dab][Dab]T; lactam 4-C) | 2 (≈ 1.56 µM) | 1 (≈ 0.78 µM) | 2 (≈ 1.56 µM) | 4 (≈ 3.12 µM) | 2 (≈ 1.56 µM) | 16 (≈ 12.5 µM) | 2 (≈ 1.56 µM) | 0.5 (≈ 0.39 µM) | 4 (≈ 3.12 µM) | 16 (≈ 12.5 µM) | 1 (≈ 0.78 µM) | 2 (≈ 1.56 µM) | 4 (≈ 3.12 µM) | 1 (≈ 0.78 µM) | 16 (≈ 12.5 µM) | 4 (≈ 3.12 µM) | 2 (≈ 1.56 µM) |  |  |  | MIC K. pneumoniae 062 (Klebsiella pneumoniae): 8 µg/mL (≈ 6.24 µM); activity against polymyxin resistant strains [1]: enhances activity against polymyxin resistant strains |
| CC(C)C[C@@H]1NC(=O)[C@@H](Cc2ccccc2)NC(=O)[C@H](CCN)NC(=O)[C@@H](NC(=O)[C@H](CN)NC(=O)[C@@H](NC(=O)[C@@H]2CNCCN2CC(C)C)C(C)O)CCNC(=O)[C@H]([C@@H](C)O)NC(=O)[C@H](CCN)NC(=O)[C@H](CCN)NC1=O (stereo partly drawn) [Example C2, (S)-1-isobutyl piperazine-2-carbonyl-L-Thr-L-Dap-polymyxin B heptapeptide, reference compound] (X1-[Thr(3ξ)][Dap][Dab][Dab][dF]L[Dab][Dab]T; lactam 3-C) | 8 (≈ 7.16 µM) | 16 (≈ 14.3 µM) | 8 (≈ 7.16 µM) | 32 (≈ 28.6 µM) | 0.25 (≈ 0.224 µM) | 128 (≈ 115 µM) | 32 (≈ 28.6 µM) | 16 (≈ 14.3 µM) | 32 (≈ 28.6 µM) | >256 | 0.125 (≈ 0.112 µM) | 32 (≈ 28.6 µM) |  | 0.5 (≈ 0.447 µM) | >256 | 256 (≈ 229 µM) | 0.25 (≈ 0.224 µM) | 316 |  |  |  |
| CC(C)CC(CN)C(=O)N[C@H](C(=O)N[C@@H](CN)C(=O)N[C@H]1CCNC(=O)[C@H]([C@@H](C)O)NC(=O)[C@H](CCN)NC(=O)[C@H](CCN)NC(=O)[C@H](CC(C)C)NC(=O)[C@@H](Cc2ccc(Br)cc2)NC(=O)[C@H](CCN)NC1=O)C(C)O (single isomer, unassigned; isomer 2) [Example 14, 2-aminomethyl-4-methyl pentanoyl polymyxin L-Thr-L-Dap-polymyxin [D-(4-bromo Phe)]-6]heptapeptide. Isomer 2] | 4 (≈ 3.46 µM) | 8 (≈ 6.93 µM) | 8 (≈ 6.93 µM) | 16 (≈ 13.9 µM) | 0.25 (≈ 0.216 µM) | 64 (≈ 55.4 µM) | 8 (≈ 6.93 µM) | 8 (≈ 6.93 µM) | 8 (≈ 6.93 µM) | >64 | 0.25 (≈ 0.216 µM) | 8 (≈ 6.93 µM) | 16 (≈ 13.9 µM) | 0.5 (≈ 0.433 µM) | 32 (≈ 27.7 µM) | 16 (≈ 13.9 µM) | 0.125 (≈ 0.108 µM) | 76 |  |  | MIC K. pneumoniae 062 (Klebsiella pneumoniae): 8 µg/mL (≈ 6.93 µM) |
| CC(C)C[C@@H]1NC(=O)[C@@H](CC2CCCCC2)NC(=O)[C@H](CCN)NC(=O)[C@@H](NC(=O)[C@H](CN)NC(=O)[C@@H](NC(=O)C(CCN)c2ccccc2)C(C)O)CCNC(=O)[C@H]([C@@H](C)O)NC(=O)[C@H](CCN)NC(=O)[C@H](CCN)NC1=O (single isomer, unassigned; isomer 2) [Example 38, 4-amino-2-phenylbutanoyl L-Thr-L-Dap-polymyxin [D-cyclohexylalanine]-6 heptapeptide. isomer 2] | 2 (≈ 1.79 µM) |  |  | 16 (≈ 14.3 µM) | 0.06 (≈ 0.0537 µM) | 32 (≈ 28.7 µM) |  | 1 (≈ 0.896 µM) |  |  |  | 4 (≈ 3.58 µM) | 4 (≈ 3.58 µM) | 0.25 (≈ 0.224 µM) | 32 (≈ 28.7 µM) | 8 (≈ 7.17 µM) | 0.06 (≈ 0.0537 µM) | 255 | 0.125 (≈ 0.112 µM) | 0.25 (≈ 0.224 µM) | MIC E. coli NCTC 9001 (Escherichia coli): 0.06 µg/mL (≈ 0.0537 µM); MIC A. baumanii NCTC 13424 (Acinetobacter baumannii): 0.03 µg/mL (≈ 0.0269 µM) |
| CC(C)C[C@@H]1NC(=O)[C@@H](CC2CCCCC2)NC(=O)[C@H](CCN)NC(=O)[C@@H](NC(=O)[C@H](CN)NC(=O)[C@@H](NC(=O)[C@H](CCN)OCc2ccc(Cl)cc2)[C@@H](C)O)CCNC(=O)[C@H]([C@@H](C)O)NC(=O)[C@H](CCN)NC(=O)[C@H](CCN)NC1=O [Example 74, (S)-4-amino-2-((4-chlorobenzyl)oxy) butanoyl L-Thr-L-Dap-polymyxin [D-cyclohexylalanine]-6 heptapeptide.] (X13-T[Dap][Dab][Dab][dCha]L[Dab][Dab]T; lactam 3-C) | 2 (≈ 1.69 µM) |  |  | 16 (≈ 13.5 µM) | 0.125 (≈ 0.106 µM) | 16 (≈ 13.5 µM) |  | 2 (≈ 1.69 µM) |  |  |  | 4 (≈ 3.39 µM) | 4 (≈ 3.39 µM) | 0.25 (≈ 0.212 µM) | 32 (≈ 27.1 µM) | 32 (≈ 27.1 µM) | 0.125 (≈ 0.106 µM) | 52 | 0.25 (≈ 0.212 µM) | 0.25 (≈ 0.212 µM) | MIC A. baumanii NCTC 13424 (Acinetobacter baumannii): 0.125 µg/mL (≈ 0.106 µM) |
